Tested on: 5-HT2 receptors
Test: Traditional GPCR binding and functional assays (radioligand binding, IP1, β-arrestin)
Type: cell-based, human
Details: FIG. 3B
Description: Radioligand Binding Assays (5-HT2AR and 5-HT2CR). The 5-HT2AR and 5-HT2CR competitive radioligand binding assays were performed at Epics Therapeutics S.A. (Belgium, FAST-0505B) using conventional methods. Briefly, competition binding was performed in duplicate in the wells of a 96-well plate (Master Block, Greiner, 786201) containing binding buffer, membrane extracts, radiotracer [^3H]-DOI and test compound. Nonspecific binding was determined by co-incubation with 200-fold excess of cold competitor DOI. The samples were incubated in a final volume of 0.1 mL at a temperature and for a duration optimized for either the 5-HT2AR or 5-HT2CR and then filtered over filter plates. […] The plates were incubated for 15 min on an orbital shaker and then counted with a TopCount™ for 1 min/well. […]
IP1 Assay (5-HT2AR and 5-HT2CR). […] After addition of the lysis buffer containing IP1-d2 and anti-IP1 cryptate detection reagents, plates were incubated for 1 h at room temperature and fluorescence ratios were measured according to the manufacturer's specifications using the HTRF kit. […]
β-Arrestin Activation (PathHunter®). […] PK and EA are then expressed as fusion proteins in U2OS cells, with PK fused to the GPCR of interest, and EA fused to β-Arrestin. […]
Serotonin 5-HT2A In Vitro Radioligand Binding Competition Assay. […] Nonspecific binding is determined by co-incubation with 200-fold excess of cold competitor. […]

CCN(CC)C(=O)[C@@H]1C=C2c3cccc4ccn(c34)C[C@H]2N(C)C1 [(+)-JRT]
agonism of 5-HT2 receptors: potent agonist of 5-HT2 receptors
